The assay addresses C-C chemokine receptor type 2 (Homo sapiens, UniProt P41597). In words: Receptor Binding Assay.

IC50 data for two molecules are collected here from BindingDB's records for patent US9062048 (Janssen Pharmaceutica, 2015).

Sequence of C-C chemokine receptor type 2 (P41597 whole entry): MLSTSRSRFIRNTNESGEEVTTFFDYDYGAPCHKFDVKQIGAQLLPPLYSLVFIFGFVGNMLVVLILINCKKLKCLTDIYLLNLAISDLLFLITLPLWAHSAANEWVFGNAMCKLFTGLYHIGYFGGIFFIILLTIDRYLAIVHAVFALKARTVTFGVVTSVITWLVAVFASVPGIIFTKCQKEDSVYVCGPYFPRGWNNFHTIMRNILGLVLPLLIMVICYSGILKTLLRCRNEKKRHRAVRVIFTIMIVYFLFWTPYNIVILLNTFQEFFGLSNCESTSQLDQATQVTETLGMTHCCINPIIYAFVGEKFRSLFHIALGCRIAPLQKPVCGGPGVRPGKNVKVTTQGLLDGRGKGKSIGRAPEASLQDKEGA

Molecule `CCC(NC(=O)NC)[C@H]1CC[C@@H](N2CC(NC(=O)CNc3ncnc4ccc(C(F)(F)F)cc34)C2)CC1` (some centres not stated) [US9062048, 142] yielded a half-inhibitory concentration (IC50) of 1230 nM.
With `C[S+]([O-])CC(O)[C@H]1CC[C@@H](N2CC(NC(=O)CNc3ncnc4ccc(C(F)(F)F)cc34)C2)CC1` (some centres not stated) [US9062048, 21] the figure was 172 nM.

In general, IC50 refers to the concentration at which inhibition is half-maximal.
